This assay is filed under the species Mus musculus. As to the kind of experiment: Inhibitory activity against nitric oxide production induced by interferon-gamma (IFN-gamma) in mouse macrophages. The format is functional.

A value given as a limit tells only on which side of the number the result lay.

The text below walks through data of ChEMBL document CHEMBL1135447, “Design and synthesis of tricyclic compounds with enone functionalities in rings A and C: a novel class of highly active inhibitors of nitric oxide production in mouse macrophages” (J Med Chem, 2002).

For `CC1(C)C(=O)C(C#N)=C[C@]2(C)C3=CCC[C@@H](O)[C@]3(C)CC[C@@H]12` (racemic), the IC50 (as a rule, the concentration needed to halve the response being measured) (Mus musculus) stood at 310 nM.
`CC1(C)C(=O)C(C#N)=C[C@]2(C)C3=CC(=O)C=C[C@]3(C)CC[C@@H]12` (stereo in doubt; (+)-6) yielded an IC50 of 58 nM.
In the case of `CC1(C)C(=O)C(C#N)=C[C@]2(C)C3=CC(=O)C=C[C@]3(C)CC[C@@H]12` (racemic), 61 nM corresponded to half-maximal inhibition (Mus musculus) (IC50).
The same measure, in the same setting: the figure for `CC1(C)C(=O)C(C#N)=C[C@]2(C)C3=CC(=O)C[C@@H](O)[C@]3(C)CC[C@@H]12` (racemic) is 75 nM; for `CC(=O)O[C@@H]1CC(=O)C=C2[C@@]3(C)C=C(C#N)C(=O)C(C)(C)[C@@H]3CC[C@]21C` (racemic) it is 53 nM.
Compound `CC1(C)CC[C@]2(C(=O)O)CC[C@]3(C)[C@H](C(=O)C=C4[C@@]5(C)C=C(C#N)C(=O)C(C)(C)[C@@H]5CC[C@]43C)[C@@H]2C1` [BARDOXOLONE] gave an IC50 (Mus musculus) of 0.5 nM.
Compound `CC1(C)C(=O)C(C#N)=C[C@]2(C)C3=CC(=O)C(C#N)=C[C@]3(C)CC[C@@H]12` (racemic) came in with an IC50 (Mus musculus) of 2.1 nM.
On the same count and under the same terms, the same measure for `CC1(C)C(=O)C(C#N)=C[C@]2(C)C3=CC(=O)C(C(N)=O)=C[C@]3(C)CC[C@@H]12` (racemic): 61 nM; for `COC(=O)C1=C[C@]2(C)CC[C@H]3C(C)(C)C(=O)C(C#N)=C[C@]3(C)C2=CC1=O` (racemic): 91 nM.
Compound `CC1(C)C(=O)C(C#N)=C[C@]2(C)C3=CC(=O)C=C[C@]3(C)CC[C@@H]12` (stereo in doubt; (-)-6) returned an IC50 of 64 nM.
With `CC1(C)C(=O)C(C#N)=C[C@]2(C)C3=CC(=O)C(C(=O)O)=C[C@]3(C)CC[C@@H]12` (racemic), the half-maximal inhibitory concentration (IC50) (Mus musculus) was 1600 nM.
On to `CC1(C)CC[C@]2(C(=O)O)CC[C@]3(C)C(=CC[C@@H]4[C@@]5(C)CC[C@H](O)C(C)(C)[C@@H]5CC[C@]43C)[C@@H]2C1` [OLEANOLIC_ACID], for which, under “Mus musculus”, the IC50 was greater than 40000 nM.
Consider `CC(=O)O[C@@H]1CCC=C2[C@@]3(C)C=C(C#N)C(=O)C(C)(C)[C@@H]3CC[C@]21C` (racemic), for which it took 480 nM to reach half-maximal inhibition (Mus musculus) (IC50).
